Test [1] has as its system Adjuvant arthritis (paw volume increase) in rats. Description: Adjuvant arthritis (method of Pearson), antiinflammatory action on the 5th day. Format: in vivo, rat (male, Wistar-Lewis strain). To be noted: Rattus norvegicus, 120 h; for ED50: adjuvant arthritis, oral, determined graphically from dose-response curve; for inhibition in vivo at 50 mg/kg: po, 50 mg/kg p.o. once daily, 1st to 5th day, vs untreated control, read-out: Adjuvant arthritis (% inhibition at 50 mg/kg orally). How it is done:
The testing of the compounds of the formula I according to the invention for antiinflammatory action, influence on immunopathological processes, oxygen free radicaldeactivating properties and influence on arachidonic acid metabolism was carried out in the animal models and bioassays described in the following.
1. Adjuvant arthritis for influencing the antiinflammatory action (Table 2)
(§1) The investigations were carried out by the method of Pearson (Arthrit. Rheum. 1959, 2, 44). Male rats of a Wistar-Lewis strain having a body weight between 130 and 200 g were used as experimental animals. The compounds to be tested were administered orally (p. o.) once daily from the 1st to the 5th experimental day in doses of 50 mg per kg of body weight. The animals of one control group received only the vehicle. Each preparation group and the control group comprised 8 animals. The percentage reduction of the paw volume increase compared to that of the untreated control group was used as the criterion of action. The ED50 values were determined graphically from the dose-response curve.
(§2) 4-(3,5-Di-tert.-butyl-4-hydroxyphenyl)-2-methylthiazole i.e. the compound of the formula [drawing 26] according to US-A-4,535,165 mentioned at the beginning, was additionally included in this and the investigation below as a comparison preparation.

Test [2] relates to Adjuvant arthritis (Perper modification; paw volume) in rats. The experiment in a line: Adjuvant arthritis (Perper modification), paw volume on the 21st day. Type of test: in vivo, rat (male, Wistar-Lewis strain). To be noted: for inhibition in vivo at 50 mg/kg: Rattus norvegicus, po, 504 h, 50 mg/kg/day, 1st to 12th day. How it is done:
as §1, §2
a) Adjuvant arthritis (Perper modification)
The animals were only treated from the 1st to the 12th experimental day in the experimental arrangement described in item 1. After a treatment-free interval of 9 days, determination of the paw volume of the left and right hind paw was carried out on the 21st day (compare Table 3).

Test [3] can be described thus: Free radical scavenger properties (reaction with DPPH). To be noted: reaction with DPPH at 20° C.; determined graphically. How it is done:
a) Free radical scavenger properties The testing in this test, which allows conclusions on the antioxidative potential of a substance, was carried out according to Smith et al., Biochem, Pharmacol. 1987. 36, 1456. In this test, the reaction of the compounds according to the invention with the stable free radical 1,1-diphenyl-2-picrylhydrazyl (DPPH) is monitored optically at 20° C. The rate constant K and reaction orders n in Table 5 were determined graphically in the customary manner.

Setting [4] is: read-out: % inhibition on the 21st day, Left paw.
The mark [5] stands for this setting: read-out: % inhibition on the 21st day, Right paw.

This note sets out measurements from patent publication US5137897A, “2-substituted 4-(3-alkyl-5-tert.-butyl-4-hydroxyphenyl) thiazoles, processes for their preparation, pharmaceuticals containing them and their use” (Hoechst Aktiengesllschaft, priority 1989, dated 1992).

Like-named read-outs stand apart in the source and are kept apart here.

For `Cc1cc(-c2csc(CCC(=O)O)n2)cc(C(C)(C)C)c1O` [Example 17], the ED50 in test [1] is 7.5 mg/kg. Also, the figures for the inhibition in vivo at 50 mg/kg in test [1], in test [2] (setting [4]) and in test [2] (setting [5]) were 67%, 60% and 38%, respectively.

For `Cc1nc(-c2cc(C(C)(C)C)c(O)c(C(C)(C)C)c2)cs1` [Comparison preparation, 4-(3,5-Di-tert.-butyl-4-hydroxyphenyl)-2-methylthiazole, reference compound], the figures for the inhibition in vivo at 50 mg/kg in test [1], in test [2] (setting [4]) and in test [2] (setting [5]) were 67%, 12% and 21%, respectively. In addition, the “action in the Perper modification of adjuvant arthritis (in words)” value in test [2] (comparison with preparation from US-A-4,535,165) was “only a suggested action”.

Turning to `CC(C)(C)c1cc(-c2csc(C=CC(=O)O)n2)cc(C(C)(C)C)c1O` [Example 11], the reaction order n in test [3] is listed as 1. Further, the 50% effective dose (ED50) in test [1] turned out to be 12.6 mg/kg. The figures for the inhibition in vivo at 50 mg/kg in test [1], in test [2] (setting [4]) and in test [2] (setting [5]) were 63%, 44% and 51%, respectively.

For `CCOC(=O)CCc1nc(-c2cc(C(C)(C)C)c(O)c(C(C)(C)C)c2)c(C)s1` [Example 14], the inhibition in vivo at 50 mg/kg in test [1] was found to be 61%; in test [2] (setting [4]), 22%; in test [2] (setting [5]) it was 49%.

Turning to `CC(C)(C)c1cc(-c2csc(CCCC(=O)O)n2)cc(C(C)(C)C)c1O` [Example 10], the inhibition in vivo at 50 mg/kg in test [1] worked out at 71%.

As for `CCOC(=O)C=Cc1nc(-c2cc(C(C)(C)C)c(O)c(C(C)(C)C)c2)cs1` [Example 2, Ethyl 3-[4-(3,5-di-tert.-butyl-4-hydroxyphenyl)thiazol-2-yl]acrylate], in test [3], the reaction order n was found to be 1.

For `COC(=O)CCc1nc(-c2cc(C(C)(C)C)c(O)c(C(C)(C)C)c2)cs1` [Example 13], the reaction order n in test [3] stood at 1. For the same molecule, the values for the inhibition in vivo at 50 mg/kg in test [1], in test [2] (setting [4]) and in test [2] (setting [5]) were 74%, 44% and 31%, respectively.

The molecule `CCOC(=O)CCc1nc(-c2cc(C(C)(C)C)c(O)c(C(C)(C)C)c2)cs1` [Example 1, Ethyl 3-[4-(3,5-di-tert.-butyl-4-hydroxyphenyl)thiazol-2-yl]propionate] displayed a reaction order n in test [3] of less than 1. In addition, the median effective dose (ED50) in test [1] came to 5.7 mg/kg. The inhibition in vivo at 50 mg/kg turned out to be 73% in test [1], 45% in test [2] (setting [4]) and 49% in test [2] (setting [5]).

On to `CONC(=O)CCc1nc(-c2cc(C(C)(C)C)c(O)c(C(C)(C)C)c2)cs1` [Example 20], for which the inhibition in vivo at 50 mg/kg in test [1] amounted to 66%; in test [2] (setting [4]), 50%; in test [2] (setting [5]), 35%.

For the molecule `CC(C)(OCc1nc(-c2cc(C(C)(C)C)c(O)c(C(C)(C)C)c2)cs1)C(=O)O` [Example 6], the inhibition in vivo at 50 mg/kg in test [1] stood at 70%.

`CC(C)(C)c1cc(-c2csc(C=C3CCNC3=O)n2)cc(C(C)(C)C)c1O` [Example 4, 3-[4-(3,5-Di-tert.-butyl-4-hydroxyphenyl)thiazol-2-ylmethylidene]pyrrolidin-2-one]: the inhibition in vivo at 50 mg/kg in test [1] is 54%.
